Patent publication US8383139B2 (Bayer CropScience AG, priority 2008, dated 2013)

Legend:
Alternaria solani = assay: Alternaria test (tomato)/protective; type: in vivo; settings: 72 h, 100 ppm active substance, protective, evaluation 3 days after inoculation, read-out: degree of effectiveness
Uromyces appendiculatus = assay: Uromyces test (beans)/protective; type: in vivo; settings: 240 h, 100 ppm active substance, protective, evaluation 10 days after inoculation, read-out: degree of effectiveness
Outline: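 Young bean plants were sprayed with compound (acetone/dimethylacetamide/emulsifier concentrate diluted in water), dried, then inoculated with U. appendiculatus spores. They were held 1 day at ~20 °C, 100% RH, then kept in a greenhouse at ~21 °C, ~90% RH. Efficacy was scored at 10 days post-inoculation (0% = control, 100% = no infestation).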

Sphaerotheca fuliginea = assay: Sphaerotheca test (cucumber)/protective; type: in vivo; settings: Podosphaera fuliginea, 168 h, 500 ppm active substance, protective, evaluation 7 days after inoculation, read-out: degree of effectiveness
Outline: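 Young cucumber plants sprayed at the stated rate with active substance in DMF/alkylaryl polyglycol ether emulsifier diluted in water, then inoculated with Sphaerotheca fuliginea spores one day later. Kept in greenhouse at 70% relative humidity, 23° C.; scored 7 days post-inoculation as % efficacy (0% = untreated control, 100% = no infestation).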

Septoria tritici = Septoria tritici test (wheat)/protective; type: in vivo; settings: Zymoseptoria tritici, 504 h, 500 ppm active substance, protective, evaluation 21 days after inoculation, read-out: degree of effectiveness
Outline: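 Young wheat plants sprayed with compound in dimethylacetamide/emulsifier-water, then inoculated with S. tritici spores once dry. Kept 48 h at 20 °C/100% RH, 60 h at 15 °C/100% RH, then greenhouse ~15 °C/80% RH. Scored 21 days post-inoculation as % efficacy versus untreated control.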

Puccinia triticina = Puccinia triticina test (wheat)/protective; type: in vivo; settings: 192 h, 500 ppm active substance, protective, evaluation 8 days after inoculation, read-out: degree of effectiveness
Outline: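 Protective test: young wheat plants sprayed with compound (in N,N-dimethylacetamide/emulsifier, diluted in water) at the stated rate, dried, then inoculated with Puccinia triticina spores; 48 h at 20 °C, 100% RH, then greenhouse ~20 °C, ~80% RH. Efficacy scored 8 days post-inoculation, 0% = untreated control, 100% = no infestation.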

Phakopsora pachyrhizi = assay: Phakopsora test (soybean)/protective; type: in vivo; settings: 264 h, 500 ppm active substance, protective, evaluation 11 days after inoculation, read-out: degree of effectiveness
Description: • Solvent: 28.5 parts by weight of acetone • Emulsifier: 1.5 parts by weight of polyoxyethylene alkylphenyl ether (polyoxy-ethylene (16) tristearylphenyl ether)
To prepare a suitable active substance composition, 1 part by weight of active substance is mixed with the given amounts of solvent and emulsifier and the concentrate is diluted to the desired concentration using water.
For the testing of protective effectiveness, young plants are sprayed with the active substance composition at the application rate given. One day after the spraying, the plants are sprayed with an aqueous suspension of spores of Phakopsora pachyrhizi. The plants remain in a greenhouse at 20° C. and 80% relative humidity.
Evaluation is carried out 11 days after the inoculation. In this connection, 0% means a degree of effectiveness corresponding to that of the control, while a degree of effectiveness of 100% means that no infestation is observed.

[1] = log P by HPLC on reversed-phase columns (C 18), EEC Directive 79/831 Annex V.A8; type: physicochemical; settings: reversed-phase C18 HPLC column, pH 2.3, [a] HPLC, acid region pH 2.3, 0.1% aqueous phosphoric acid and acetonitrile; read-out: log p

| Compound | pest or weed control at 100 ppm (Alternaria solani) [%] | pest or weed control at 100 ppm (Uromyces appendiculatus) [%] | pest or weed control at 500 ppm (Sphaerotheca fuliginea) [%] | pest or weed control at 500 ppm (Septoria tritici) [%] | pest or weed control at 500 ppm (Puccinia triticina) [%] | pest or weed control at 500 ppm (Phakopsora pachyrhizi) [%] | chromatographic logP [1] |
| --- | --- | --- | --- | --- | --- | --- | --- |
| CCN(C)C=Nc1cc(C)c(Oc2nc(Cc3ccc(Cl)cc3)ns2)cc1C [Example 1, N′-(4-{[3-(4-chlorobenzyl)-1,2,4-thiadiazol-5-yl]oxy}-2,5-dimethylphenyl)-N-ethyl-N-methylimidoformamide] | ≥ 70 | ≥ 70 | ≥ 70 | ≥ 70 | ≥ 70 | ≥ 80 |  |
| Cc1cc(Oc2nc(Cc3ccc(Cl)cc3)ns2)c(C)cc1N=CN1CCCCC1 [Example 2, 4-{[3-(4-chlorobenzyl)-1,2,4-thiadiazol-5-yl]oxy}-2,5-dimethyl-N-(piperidin-1-ylmethylidene)aniline] | ≥ 70 | ≥ 70 | ≥ 70 | ≥ 70 | ≥ 70 | ≥ 80 | 2.09 |
| CCN(C)C=Nc1cc(Cl)c(Oc2nc(Cc3ccc(Cl)cc3)ns2)cc1C [Example 3, N′-(5-chloro-4-{[3-(4-chlorobenzyl)-1,2,4-thiadiazol-5-yl]oxy}-2-methylphenyl)-N-ethyl-N-methylimidoformamide] | ≥ 70 | ≥ 70 | ≥ 70 | ≥ 70 | ≥ 70 | ≥ 80 |  |
| CCN(C)C=Nc1cc(C)c(Oc2nc(C(C)c3ccccc3)ns2)cc1C (centres unmarked) [Example 5, N′-(2,5-dimethyl-4-{[3-(1-phenylethyl)-1,2,4-thiadiazol-5-yl]oxy}phenyl)-N-ethyl-N-methylimidoformamide] | ≥ 70 | ≥ 70 | ≥ 70 |  | ≥ 70 | ≥ 80 | 1.92 |
| CCN(C)C=Nc1cc(C)c(Oc2nc(Cc3ccc(Cl)cc3Cl)ns2)cc1C [Example 11, N′-(4-{[3-(2,4-dichlorobenzyl)-1,2,4-thiadiazol-5-yl]oxy}-2,5-dimethylphenyl)-N-ethyl-N-methylimidoformamide] | ≥ 70 | ≥ 70 | ≥ 70 | ≥ 70 | ≥ 70 | ≥ 80 | 2.19 |
| CCN(C)C=Nc1cc(C)c(Oc2nc(C(C)c3ccc(Cl)cc3)ns2)cc1C (centres unmarked) [Example 17, N′-[4-({3-[1-(4-chlorophenyl)ethyl]-1,2,4-thiadiazol-5-yl}oxy)-2,5-dimethylphenyl]-N-ethyl-N-methylimidoformamide] | ≥ 70 | ≥ 70 | ≥ 70 | ≥ 70 | ≥ 70 | ≥ 80 | 2.34 |
| CCN(C)C=Nc1cc(Cl)c(Oc2nc(C(C)c3ccc(Cl)cc3)ns2)cc1C (centres unmarked) [Example 20, N′-[5-chloro-4-({3-[1-(4-chlorophenyl)ethyl]-1,2,4-thiadiazol-5-yl}oxy)-2-methylphenyl]-N-ethyl-N-methylimidoformamide] |  | ≥ 70 | ≥ 70 |  | ≥ 70 | ≥ 80 | 2.39 |
